Laboratory results published in ChEMBL document CHEMBL1201861, “Genomics of Drug Sensitity in Cancer screening data, Wellcome Trust Sanger Institute”.

How the values were obtained:
Assay in all cases: cells
Calu-6 = type: functional, cell-based, Homo sapiens; conditions: Homo sapiens, Calu-6;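 further: growth of human Calu-6 cells, read out by a cell viability assay, IC50 marking inhibition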
Description: SANGER: Inhibition of human Calu-6 cell growth in a cell viability assay.

EW-1 = type: functional, cell-based, Homo sapiens; conditions: Homo sapiens, EW-1
Description: SANGER: Inhibition of human EW-1 cell growth in a cell viability assay.

KNS-81-FD = type: functional, cell-based, Homo sapiens; conditions: Homo sapiens, KNS-81-FD;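 further: growth inhibition of KNS-81-FD cells, read out with a cell viability assay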
Description: SANGER: Inhibition of human KNS-81-FD cell growth in a cell viability assay.

Mo = type: functional, cell-based, Homo sapiens; conditions: Homo sapiens, Mo
Description: SANGER: Inhibition of human Mo-T cell growth in a cell viability assay.

D-263MG = type: functional, cell-based, Homo sapiens; conditions: Homo sapiens, D-263MG
Description: SANGER: Inhibition of human D-263MG cell growth in a cell viability assay.

IST-SL1 = type: functional, cell-based, Homo sapiens; conditions: Homo sapiens, IST-SL1;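 further: growth inhibition of human IST-SL1 cells, read out with a cell viability assay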
Description: SANGER: Inhibition of human IST-SL1 cell growth in a cell viability assay.

OVCAR-4 = type: functional, cell-based, Homo sapiens; conditions: Homo sapiens, OVCAR-4;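 further: growth inhibition of human OVCAR-4 cells, measured with a cell viability assay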
Description: SANGER: Inhibition of human OVCAR-4 cell growth in a cell viability assay.

DEL = type: functional, cell-based, Homo sapiens; conditions: Homo sapiens, DEL;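 further: growth inhibition of the human DEL cell line, read out with a cell viability assay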
Description: SANGER: Inhibition of human DEL cell growth in a cell viability assay.

C2BBe1 = type: functional, cell-based, Homo sapiens; conditions: Homo sapiens, C2BBe1;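 further: growth inhibition of C2BBe1 cells, read out through a viability assay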
Description: SANGER: Inhibition of human C2BBe1 cell growth in a cell viability assay.

ONS-76 = type: functional, cell-based, Homo sapiens; conditions: Homo sapiens, ONS-76;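 further: growth inhibition of human ONS-76 cells, read out with a cell viability assay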
Description: SANGER: Inhibition of human ONS-76 cell growth in a cell viability assay.

LS-513 = type: functional, cell-based, Homo sapiens; conditions: Homo sapiens, LS-513
Description: SANGER: Inhibition of human LS-513 cell growth in a cell viability assay.

SH-4 = type: functional, cell-based; conditions: Homo sapiens;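 further: growth inhibition of SH-4 cells, read out with a cell viability assay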
Description: SANGER: Inhibition of human SH-4 cell growth in a cell viability assay.

COLO-829 = type: functional, cell-based, Homo sapiens; conditions: Homo sapiens, COLO-829
Description: SANGER: Inhibition of human COLO-829 cell growth in a cell viability assay.

DJM-1 = type: functional, cell-based, Homo sapiens; conditions: Homo sapiens, DJM-1;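 further: growth inhibition of human DJM-1 cells, read out by a cell viability assay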
Description: SANGER: Inhibition of human DJM-1 cell growth in a cell viability assay.

KM12 = type: functional, cell-based, Homo sapiens; conditions: Homo sapiens, KM12;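 further: KM12 cell growth inhibition, read out with a cell viability assay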
Description: SANGER: Inhibition of human KM12 cell growth in a cell viability assay.

HAL-01 = type: functional, cell-based, Homo sapiens; conditions: Homo sapiens, HAL-01;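 further: growth inhibition of human HAL-01 cells, read out with a cell viability assay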
Description: SANGER: Inhibition of human HAL-01 cell growth in a cell viability assay.

C8166 = type: functional, cell-based, Homo sapiens; conditions: Homo sapiens, C8166;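 further: growth inhibition of human C8166 cells measured by a cell viability assay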
Description: SANGER: Inhibition of human C8166 cell growth in a cell viability assay.

IST-MES1 = type: functional, cell-based, Homo sapiens; conditions: Homo sapiens, IST-MES1;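 further: growth inhibition of IST-MES1 cells, measured with a cell viability assay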
Description: SANGER: Inhibition of human IST-MES1 cell growth in a cell viability assay.

DMS-114 = type: functional, cell-based, Homo sapiens; conditions: Homo sapiens, DMS-114
KS-1 = type: functional, cell-based; conditions: Homo sapiens;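 further: growth inhibition of KS-1 cells, read out with a cell viability assay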
Description: SANGER: Inhibition of human KS-1 cell growth in a cell viability assay.

LB831-BLC = type: functional, cell-based, Homo sapiens; conditions: Homo sapiens, LB831-BLC;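 further: growth inhibition of LB831-BLC cells, read out with a cell viability assay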
Description: SANGER: Inhibition of human LB831-BLC cell growth in a cell viability assay.

MHH-PREB-1 = type: functional, cell-based, Homo sapiens; conditions: Homo sapiens, MHH-PREB-1;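 further: cell viability assay measuring inhibition of proliferation of human MHH-PREB-1 cells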
Description: SANGER: Inhibition of human MHH-PREB-1 cell growth in a cell viability assay.

SK-NEP-1 = type: functional, cell-based, Homo sapiens; conditions: Homo sapiens, SK-NEP-1;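 further: growth inhibition of human SK-NEP-1 cells, read out by a cell viability assay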
Description: SANGER: Inhibition of human SK-NEP-1 cell growth in a cell viability assay.

TE-5 = type: functional, cell-based, Homo sapiens; conditions: Homo sapiens, TE-5;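 further: inhibition of cell growth, read out by a cell viability assay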
Description: SANGER: Inhibition of human TE-5 cell growth in a cell viability assay.

QIMR-WIL = type: functional, cell-based, Homo sapiens; conditions: Homo sapiens, QIMR-WIL;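 further: growth inhibition of QIMR-WIL cells, read out with a cell viability assay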
Description: SANGER: Inhibition of human QIMR-WIL cell growth in a cell viability assay.

ETK-1 = type: functional, cell-based, Homo sapiens; conditions: Homo sapiens, ETK-1;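 further: growth inhibition of human ETK-1 cells, read out with a cell viability assay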
Description: SANGER: Inhibition of human ETK-1 cell growth in a cell viability assay.

BB65-RCC = type: functional, cell-based, Homo sapiens; conditions: Homo sapiens, BB65-RCC;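 further: growth inhibition of the cell line, measured with a cell viability assay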
Description: SANGER: Inhibition of human BB65-RCC cell growth in a cell viability assay.

A101D = type: functional, cell-based, Homo sapiens; conditions: Homo sapiens, A101D;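 further: growth inhibition of the cell line, measured with a viability assay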
Description: SANGER: Inhibition of human A101D cell growth in a cell viability assay.

L-363 = type: functional, cell-based, Homo sapiens; conditions: Homo sapiens, L-363
Description: SANGER: Inhibition of human L-363 cell growth in a cell viability assay.

ES6 = type: functional, cell-based; conditions: Homo sapiens;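 further: growth inhibition of human ES6 cells, read out with a cell viability assay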
Description: SANGER: Inhibition of human ES6 cell growth in a cell viability assay.

RS4-11 = type: functional, cell-based, Homo sapiens; conditions: Homo sapiens, RS4-11;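 further: growth inhibition of RS4-11 cells, read out by a cell viability assay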
Description: SANGER: Inhibition of human RS4-11 cell growth in a cell viability assay.

ES8 = type: functional, cell-based, Homo sapiens; conditions: Homo sapiens, ES8;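 further: growth inhibition of human ES8 cells, read out with a cell viability assay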
Description: SANGER: Inhibition of human ES8 cell growth in a cell viability assay.

KALS-1 = type: functional, cell-based, Homo sapiens; conditions: Homo sapiens, KALS-1; read-out: IC50;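 further: growth inhibition of KALS-1 cells, determined with a cell viability assay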
Description: SANGER: Inhibition of human KALS-1 cell growth in a cell viability assay.

LOX IMVI = type: functional, cell-based, Homo sapiens; conditions: Homo sapiens, LOX IMVI
Description: SANGER: Inhibition of human LOXIMVI cell growth in a cell viability assay.

MZ2-MEL = type: functional, cell-based, Homo sapiens; conditions: Homo sapiens, MZ2-MEL;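 further: growth inhibition of MZ2-MEL cells read out with a cell viability assay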
Description: SANGER: Inhibition of human MZ2-MEL cell growth in a cell viability assay.

A704 = type: functional, cell-based; conditions: Homo sapiens;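 further: growth inhibition of human A704 cells, read out with a cell viability assay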
Description: SANGER: Inhibition of human A704 cell growth in a cell viability assay.

COLO-684 = type: functional, cell-based, Homo sapiens; conditions: Homo sapiens, COLO-684
Description: SANGER: Inhibition of human COLO-684 cell growth in a cell viability assay.

MEG-01 = type: functional, cell-based, Homo sapiens; conditions: Homo sapiens, MEG-01;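 further: growth inhibition of MEG-01 cells, read out by a cell viability assay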
Description: SANGER: Inhibition of human MEG-01 cell growth in a cell viability assay.

SCC-15 = type: functional, cell-based, Homo sapiens; conditions: Homo sapiens, SCC-15;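 further: growth inhibition of SCC-15 cells, read out with a cell viability assay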
Description: SANGER: Inhibition of human SCC-15 cell growth in a cell viability assay.

L-428 = type: functional, cell-based, Homo sapiens; conditions: Homo sapiens, L-428
Description: SANGER: Inhibition of human L-428 cell growth in a cell viability assay.

Ramos-2G6-4C10 = type: functional, cell-based, Homo sapiens; conditions: Homo sapiens, Ramos-2G6-4C10;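 further: growth inhibition of the cell line, measured by a cell viability read-out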
Description: SANGER: Inhibition of human Ramos-2G6-4C10 cell growth in a cell viability assay.

GCIY = type: functional, cell-based, Homo sapiens; conditions: Homo sapiens, GCIY;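 further: growth inhibition of the human GCIY cell line, read out by a cell viability assay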
Description: SANGER: Inhibition of human GCIY cell growth in a cell viability assay.

MZ7-mel = type: functional, cell-based, Homo sapiens; conditions: Homo sapiens, MZ7-mel;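 further: growth inhibition of human MZ7-mel cells, measured by a cell viability assay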
Description: SANGER: Inhibition of human MZ7-mel cell growth in a cell viability assay.

TE-6 = type: functional, cell-based, Homo sapiens; conditions: Homo sapiens, TE-6;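 further: growth inhibition of TE-6 cells, read out with a cell viability assay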
Description: SANGER: Inhibition of human TE-6 cell growth in a cell viability assay.

TGBC1TKB = type: functional, cell-based, Homo sapiens; conditions: Homo sapiens, TGBC1TKB;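 further: growth inhibition of TGBC1TKB cells, read out by a cell viability assay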
Description: SANGER: Inhibition of human TGBC1TKB cell growth in a cell viability assay.

SW684 = type: functional, cell-based, Homo sapiens; conditions: Homo sapiens, SW684; read-out: IC50;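 further: growth inhibition of human SW684 cells, measured by a cell viability assay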
Description: SANGER: Inhibition of human SW684 cell growth in a cell viability assay.

NCI-H82 = type: functional, cell-based, Homo sapiens; conditions: Homo sapiens, NCI-H82;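 further: growth inhibition of NCI-H82 cells, measured with a cell viability readout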
Description: SANGER: Inhibition of human NCI-H82 cell growth in a cell viability assay.

no-10 = type: functional, cell-based, Homo sapiens; conditions: Homo sapiens;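 further: growth inhibition of no-10 cells, read out with a cell viability assay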
Description: SANGER: Inhibition of human no-10 cell growth in a cell viability assay.

EW-18 = type: functional, cell-based, Homo sapiens; conditions: Homo sapiens, EW-18; read-out: IC50;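 further: growth inhibition of EW-18 cells, read out by a cell viability assay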
Description: SANGER: Inhibition of human EW-18 cell growth in a cell viability assay.

TK-10 = type: functional, cell-based, Homo sapiens; conditions: Homo sapiens, TK-10;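 further: growth inhibition of TK-10 cells, read out in a cell viability assay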
Description: SANGER: Inhibition of human TK10 cell growth in a cell viability assay.

Work on `COC(=O)[C@H](CCSC)NC(=O)c1ccc(NC[C@@H](N)CS)cc1-c1ccccc1` yielded an IC50 (Calu-6) of over 1.02 µM, an IC50 (EW-1) of over 1.02 µM and an IC50 (KNS-81-FD) of over 1.02 µM. The IC50 (Mo) was over 1.02 µM, the IC50 (D-263MG) was over 1.02 µM and the IC50 (IST-SL1) was over 1.02 µM. For the same molecule, the IC50 (OVCAR-4) was over 1.02 µM, the IC50 (DEL) was over 1.02 µM and the IC50 (C2BBe1) was over 1.02 µM. For the same molecule, the IC50 (ONS-76) was 0.838 µM, the IC50 (LS-513) was over 1.02 µM and the IC50 (SH-4) was over 1.02 µM. For the same molecule, the IC50 (COLO-829) was over 1.02 µM, the IC50 (DJM-1) was over 1.02 µM and the IC50 (KM12) was over 1.02 µM. It also gave an IC50 (HAL-01) of over 1.02 µM, an IC50 (C8166) of over 1.02 µM and an IC50 (IST-MES1) of over 1.02 µM. For the same molecule, the IC50 (DMS-114) was over 1.02 µM, the IC50 (KS-1) was over 1.02 µM and the IC50 (LB831-BLC) was over 1.02 µM. It also gave an IC50 (MHH-PREB-1) of over 1.02 µM, an IC50 (SK-NEP-1) of over 1.02 µM and an IC50 (TE-5) of over 1.02 µM. For the same molecule, the IC50 (QIMR-WIL) was over 1.02 µM, the IC50 (ETK-1) was over 1.02 µM and the IC50 (BB65-RCC) was over 1.02 µM. It also gave an IC50 (A101D) of over 1.02 µM, an IC50 (L-363) of over 1.02 µM and an IC50 (ES6) of over 1.02 µM. It also gave an IC50 (RS4-11) of over 1.02 µM, an IC50 (ES8) of over 1.02 µM and an IC50 (KALS-1) of over 1.02 µM. It also gave an IC50 (LOX IMVI) of over 1.02 µM, an IC50 (MZ2-MEL) of over 1.02 µM and an IC50 (A704) of over 1.02 µM. It also gave an IC50 (COLO-684) of over 1.02 µM, an IC50 (MEG-01) of over 1.02 µM and an IC50 (SCC-15) of over 1.02 µM. It also gave an IC50 (L-428) of over 1.02 µM, an IC50 (Ramos-2G6-4C10) of over 1.02 µM and an IC50 (GCIY) of over 1.02 µM. It also gave an IC50 (MZ7-mel) of over 1.02 µM, an IC50 (TE-6) of over 1.02 µM and an IC50 (TGBC1TKB) of over 1.02 µM. The IC50 (SW684) was over 1.02 µM, the IC50 (NCI-H82) was over 1.02 µM and the IC50 (no-10) was over 1.02 µM. For the same molecule, the IC50 (EW-18) was over 1.02 µM and the IC50 (TK-10) was over 1.02 µM.
Molecule `OC[C@H](Cc1ccccc1)Nc1nc(Oc2ccc3c(c2)CCC3)nc2c1ncn2Cc1ccc(-c2ccccc2)cc1` has an IC50 (Calu-6) of over 10.2 µM, an IC50 (EW-1) of over 10.2 µM and an IC50 (KNS-81-FD) of over 10.2 µM. For the same molecule, the IC50 (Mo) was over 10.2 µM, the IC50 (D-263MG) was over 10.2 µM and the IC50 (IST-SL1) was over 10.2 µM. For the same molecule, the IC50 (OVCAR-4) was 8.19 µM, the IC50 (DEL) was over 10.2 µM and the IC50 (C2BBe1) was over 10.2 µM. The IC50 (ONS-76) was 8.58 µM, the IC50 (LS-513) was over 10.2 µM and the IC50 (SH-4) was over 10.2 µM. It also gave an IC50 (COLO-829) of over 10.2 µM, an IC50 (DJM-1) of over 10.2 µM and an IC50 (KM12) of over 10.2 µM. For the same molecule, the IC50 (HAL-01) was 9.16 µM, the IC50 (C8166) was over 10.2 µM and the IC50 (IST-MES1) was over 10.2 µM. The IC50 (DMS-114) was over 10.2 µM, the IC50 (KS-1) was over 10.2 µM and the IC50 (LB831-BLC) was over 10.2 µM. For the same molecule, the IC50 (MHH-PREB-1) was over 10.2 µM, the IC50 (SK-NEP-1) was over 10.2 µM and the IC50 (TE-5) was over 10.2 µM. It also gave an IC50 (QIMR-WIL) of 6.65 µM, an IC50 (ETK-1) of over 10.2 µM and an IC50 (BB65-RCC) of 7.84 µM. The IC50 (A101D) was over 10.2 µM, the IC50 (L-363) was 6.66 µM and the IC50 (ES6) was over 10.2 µM. The IC50 (RS4-11) was over 10.2 µM, the IC50 (ES8) was over 10.2 µM and the IC50 (KALS-1) was over 10.2 µM. For the same molecule, the IC50 (LOX IMVI) was over 10.2 µM, the IC50 (MZ2-MEL) was 4.42 µM and the IC50 (A704) was over 10.2 µM. For the same molecule, the IC50 (COLO-684) was over 10.2 µM, the IC50 (MEG-01) was 4.6 µM and the IC50 (SCC-15) was over 10.2 µM. It also gave an IC50 (L-428) of over 10.2 µM, an IC50 (Ramos-2G6-4C10) of 7.65 µM and an IC50 (GCIY) of over 10.2 µM. The IC50 (MZ7-mel) was 8.89 µM, the IC50 (TE-6) was over 10.2 µM and the IC50 (TGBC1TKB) was over 10.2 µM. It also gave an IC50 (SW684) of 8.52 µM, an IC50 (NCI-H82) of over 10.2 µM and an IC50 (no-10) of over 10.2 µM. It also gave an IC50 (EW-18) of over 10.2 µM and an IC50 (TK-10) of over 10.2 µM.
For `O=S(=O)(O)c1ccc2cc(/N=N/c3cc(S(=O)(=O)O)c4cccnc4c3O)ccc2c1`, the IC50 (Calu-6) was over 16 µM, the IC50 (EW-1) was over 16 µM and the IC50 (KNS-81-FD) was over 16 µM. The IC50 (Mo) was over 16 µM, the IC50 (D-263MG) was over 16 µM and the IC50 (IST-SL1) was over 16 µM. It also gave an IC50 (OVCAR-4) of over 16 µM, an IC50 (DEL) of over 16 µM and an IC50 (C2BBe1) of over 16 µM. The IC50 (ONS-76) was over 16 µM, the IC50 (LS-513) was over 16 µM and the IC50 (SH-4) was over 16 µM. For the same molecule, the IC50 (COLO-829) was over 16 µM, the IC50 (DJM-1) was over 16 µM and the IC50 (KM12) was over 16 µM. The IC50 (HAL-01) was over 16 µM, the IC50 (C8166) was over 16 µM and the IC50 (IST-MES1) was over 16 µM. It also gave an IC50 (DMS-114) of over 16 µM, an IC50 (KS-1) of over 16 µM and an IC50 (LB831-BLC) of over 16 µM. It also gave an IC50 (MHH-PREB-1) of over 16 µM, an IC50 (SK-NEP-1) of over 16 µM and an IC50 (TE-5) of over 16 µM. The IC50 (QIMR-WIL) was over 16 µM, the IC50 (ETK-1) was over 16 µM and the IC50 (BB65-RCC) was over 16 µM. For the same molecule, the IC50 (A101D) was over 16 µM, the IC50 (L-363) was over 16 µM and the IC50 (ES6) was over 16 µM. For the same molecule, the IC50 (RS4-11) was over 16 µM, the IC50 (ES8) was over 16 µM and the IC50 (KALS-1) was over 16 µM. It also gave an IC50 (LOX IMVI) of over 16 µM, an IC50 (MZ2-MEL) of over 16 µM and an IC50 (A704) of over 16 µM. It also gave an IC50 (COLO-684) of over 16 µM, an IC50 (MEG-01) of over 16 µM and an IC50 (SCC-15) of over 16 µM. For the same molecule, the IC50 (L-428) was over 16 µM, the IC50 (Ramos-2G6-4C10) was over 16 µM and the IC50 (GCIY) was over 16 µM. It also gave an IC50 (MZ7-mel) of over 16 µM, an IC50 (TE-6) of over 16 µM and an IC50 (TGBC1TKB) of over 16 µM. The IC50 (SW684) was over 16 µM, the IC50 (NCI-H82) was over 16 µM and the IC50 (no-10) was over 16 µM. It also gave an IC50 (EW-18) of over 16 µM and an IC50 (TK-10) of over 16 µM.
